From patent US7790687B2, “Treatment for neurodegeneration” (Proximagen Ltd., priority 2005, dated 2010)
Entries after “also recorded” stand apart in the source; their conditions may differ.

Tests used:
[1] = system: TH positive cells in primary ventral mesencephalic cell cultures; assay: MPP+ dose response on TH positive cell number in primary ventral mesencephalic cell cultures; format: cell-based, rat; details: 24 hrs MPP+ exposure, 0.1-10 μM, n=3; read-out: EC50, dopaminergic (TH positive) cell death
Procedure: (§1) Primary ventral mesencephalic cell cultures: Primary cell cultures were prepared by dissecting out the ventral mesencephalon from E14 rat foetuses. The dissected tissue was pooled and incubated with 0.1% Trypsin solution. This solution was then removed and replaced with Dulbecco's modified Eagles medium (DMEM) containing 10% foetal bovine serum (FBS) and 0.25% penicillin-streptomycin-neomycin (PSN), and the tissue centrifuged for 1 minute at 200 rpm at room temperature. The supernatant was then removed, fresh medium was added and the tissue mechanically dissociated using increasing fine bore fire-polished Pasteur pipettes. Cell density was assessed using a haematocytometer and cells were plated in culture medium containing 10% FBS and 0.25% PSN at a density of 1-1.5×10^5 on sterile coverslips coated with 0.01 % poly-D-lysine. After 4 days the culture medium was removed and replaced with fresh serum free DMEM prior to treatment with MPP+ or OPN. […]
MPP+ dose response: MPP+ was dissolved in sterile PBS and the primary cell cultures were incubated for 24 hrs with one of the following concentrations of MPP+: 0.1, 0.5, 1, 2, 5, 10 μM MPP+ or vehicle (PBS). […] An EC50 was calculated (3.076±0.56) and a high (10 μM) or low (2 μM) MPP+ concentration was used to investigate the role of OPN in dopaminergic cell survival. […]

[2] = system: TH positive cells in primary ventral mesencephalic cultures; assay: Survival of TH positive cells in primary ventral mesencephalic cultures without MPP+ treatment; format: cell-based, rat; details: 24 hrs incubation, no MPP+ (no toxin), n=3
Procedure: as §1
(§2) Tyrosine hydroxylase (TH) immunohistochemistry: The culture medium was removed from the cells and the coverslips were fixed in 4% paraformaldehyde prior to peroxidase detection of TH using the ABC immunohistochemical method. Coverslips were mounted and examined using a Zeiss Axiophot microscope at a 50× magnification and the number of TH positive cells on each coverslip was manually counted in four fields chosen at random.(total area: 8 mm^2).

[3] = system: TH positive cells in primary ventral mesencephalic cultures; assay: Survival of TH positive cells in primary ventral mesencephalic cultures, pre-treatment followed by MPP+; format: cell-based, rat; details: for effect on survival/death of TH positive cells: 24 hrs pre-treatment, n=3; for concentration of maximal efficacy (TH cell survival): lowest concentration used
Procedure: Primary ventral mesencephalic cell cultures: Primary cell cultures were prepared by dissecting out the ventral mesencephalon from E14 rat foetuses. The dissected tissue was pooled and incubated with 0.1% Trypsin solution. This solution was then removed and replaced with Dulbecco's modified Eagles medium (DMEM) containing 10% foetal bovine serum (FBS) and 0.25% penicillin-streptomycin-neomycin (PSN), and the tissue centrifuged for 1 minute at 200 rpm at room temperature. The supernatant was then removed, fresh medium was added and the tissue mechanically dissociated using increasing fine bore fire-polished Pasteur pipettes. Cell density was assessed using a haematocytometer and cells were plated in culture medium containing 10% FBS and 0.25% PSN at a density of 1-1.5×10^5 on sterile coverslips coated with 0.01 % poly-D-lysine. After 4 days the culture medium was removed and replaced with fresh serum free DMEM prior to treatment with MPP+ or OPN. Each treatment was done in triplicate per experiment and each series of experiments was repeated a further 2 times to give a final n=3.
Manipulation of the OPN system: Cultures were incubated with one of the following treatments for 24 hrs prior to MPP+ administration (either 10 μM or 2 μM MPP+): OPN protein (1, 5, 10, 25, 50 & 100 ng/ml), anti-OPN antibody (26.5, 53, 265, 530 ng/ml and 1.325, 2.65 μg/ml), anti-αv or anti-β3 integrin receptor subunit antibody (0.02, 0.04, 0.2, 0.4, 1 & 2 μg/ml). Control groups received no MPP+ treatment.
as §2

[4] = system: TH positive cells in the rat SN; assay: Intranigral LPS injection, TH immunoreactive cell number in the SN; format: in vivo; details: compared to contralateral intact SN and to saline controls, present at 24, 48, 72 and 120 hrs
Procedure: (§3) Male Wistar rats (250-280 g) were obtained from Tuck (Essex, UK) and were kept on a 12 hour light/dark cycle at 21-24° C. with 55-65% humidity with unrestricted access to rat chow and water. All experiments were conducted according to the guidelines set out in the UK Animals (Scientific Procedures) Act 1986 and approved by the King's College London Ethics Committee.
(§4) Animals were randomly divided into 4 groups (n=16 in each group) anaesthetised with halothane (4% in 5%O2:95%CO2), placed in a stereotaxic frame (Kopf Instruments) with the incisor bar set at −3.3 mm and anaesthesia maintained using halothane (1.5-2%). The heads were shaved, scalp cut, skull exposed and a burr hole drilled on the left side of the skull. The following co-ordinates for the SN were used: AP: −4.8 mm, L: +2.0 mm, V: +8.0 mm (Paxinos & Watson, 1986). A 10 μl Hamilton syringe was used and 2 μl of LPS (n=8) (5 mg/ml dissolved in 0.9% sterile saline: E. coli 055:B5; Calbiochem, Nottingham, UK) or 2 μl of vehicle (0.9% sterile saline; n=8) was delivered over a period of 2 minutes. The needle was left in situ for a further 2 minutes before being slowly withdrawn. The wound was closed using Ethicon sutures and the animals allowed to recover from anaesthesia until freely moving before being returned to their home cages. […]

[5] = system: OPN immunoreactivity in the rat SN; assay: Intranigral LPS injection, OPN immunoreactivity in the SN; format: in vivo; details: compared to saline treated animals
Procedure: as §3, §4

C[n+]1ccc(-c2ccccc2)cc1 [MPP+]
EC50 [1]: 3.08 ± 0.56 µM

OPN protein fragment: 15 amino acid fragment of rat osteopontin containing the RGD αvβ3 integrin binding site and the α4 and α9 integrin subunit binding sites (TVDVPDGRGDSLAYG; listed as Rattus norvegicus)
effect on viability of TH positive cells [2]: not found to affect the viability; also recorded: no effect
effect on survival/death of TH positive cells ([3]; then 2 μM MPP+ for 24 hrs): almost completely protected dopaminergic cells; also recorded: increased TH cell survival
effect on survival/death of TH positive cells ([3]; then 10 μM MPP+ for 24 hrs): almost completely protected dopaminergic cells; also recorded: increased survival of TH positive cells
concentration of maximal efficacy (TH cell survival) ([3]; then 2 μM MPP+): 1 ng/mL
concentration of maximal efficacy (TH cell survival) ([3]; then 10 μM MPP+): 1 ng/mL

lipopolysaccharide [LPS]
decrease in TH positive cells in the LPS injected SN [4]: 70%
increase in OPN immunoreactivity [5]: 14 fold
